From ChEMBL document CHEMBL1121888, “(alpha S)-erythro-alpha-methylepinephrine: preparation and stereoselective binding to adrenergic receptors in rat forebrain” (J Med Chem, 1981) come the findings set out here.

The test deals with T1, Adrenergic receptor alpha-1 (Rattus norvegicus, UniProt P15823+P23944+P43140).
T1 sequence (P15823 whole entry): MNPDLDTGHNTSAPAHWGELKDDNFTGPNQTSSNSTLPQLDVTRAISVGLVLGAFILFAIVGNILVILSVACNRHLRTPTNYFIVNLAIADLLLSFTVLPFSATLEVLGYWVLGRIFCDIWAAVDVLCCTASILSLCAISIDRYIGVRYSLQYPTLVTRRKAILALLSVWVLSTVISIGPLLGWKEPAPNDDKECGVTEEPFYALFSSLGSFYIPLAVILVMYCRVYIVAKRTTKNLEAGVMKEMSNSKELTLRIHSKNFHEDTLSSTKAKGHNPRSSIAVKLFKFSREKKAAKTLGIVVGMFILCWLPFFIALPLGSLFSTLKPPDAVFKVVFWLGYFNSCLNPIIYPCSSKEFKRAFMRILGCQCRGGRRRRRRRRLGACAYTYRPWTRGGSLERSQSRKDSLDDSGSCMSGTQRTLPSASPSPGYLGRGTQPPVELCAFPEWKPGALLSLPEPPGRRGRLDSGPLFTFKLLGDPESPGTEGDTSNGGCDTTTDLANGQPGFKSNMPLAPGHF
T1 sequence (P23944 whole entry): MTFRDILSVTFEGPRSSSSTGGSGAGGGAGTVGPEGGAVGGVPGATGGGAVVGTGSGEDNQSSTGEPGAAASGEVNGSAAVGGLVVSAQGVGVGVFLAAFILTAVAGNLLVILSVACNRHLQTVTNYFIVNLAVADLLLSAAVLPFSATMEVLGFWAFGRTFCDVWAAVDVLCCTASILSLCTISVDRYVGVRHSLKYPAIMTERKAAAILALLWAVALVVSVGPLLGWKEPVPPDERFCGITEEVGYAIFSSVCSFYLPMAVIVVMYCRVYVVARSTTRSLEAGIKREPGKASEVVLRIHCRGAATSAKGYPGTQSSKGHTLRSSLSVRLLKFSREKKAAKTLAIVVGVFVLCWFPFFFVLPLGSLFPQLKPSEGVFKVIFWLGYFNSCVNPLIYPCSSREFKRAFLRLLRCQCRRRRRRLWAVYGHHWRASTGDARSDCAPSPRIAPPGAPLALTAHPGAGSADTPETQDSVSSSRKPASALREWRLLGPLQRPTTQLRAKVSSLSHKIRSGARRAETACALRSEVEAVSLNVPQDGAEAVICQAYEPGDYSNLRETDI
T1 sequence (P43140 whole entry): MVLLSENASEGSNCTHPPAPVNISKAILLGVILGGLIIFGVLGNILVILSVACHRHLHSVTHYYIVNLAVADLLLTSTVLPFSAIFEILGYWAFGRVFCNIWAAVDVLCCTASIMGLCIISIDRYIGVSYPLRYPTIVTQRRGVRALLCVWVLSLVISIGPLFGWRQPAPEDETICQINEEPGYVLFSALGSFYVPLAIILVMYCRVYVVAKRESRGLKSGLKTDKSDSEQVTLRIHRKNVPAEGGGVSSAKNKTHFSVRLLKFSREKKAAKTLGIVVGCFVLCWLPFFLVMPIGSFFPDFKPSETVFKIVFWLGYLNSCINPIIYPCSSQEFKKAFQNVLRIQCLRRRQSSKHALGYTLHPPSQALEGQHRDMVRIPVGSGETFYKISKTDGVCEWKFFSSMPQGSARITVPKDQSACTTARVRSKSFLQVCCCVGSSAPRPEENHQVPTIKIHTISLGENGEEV
Put plainly: Compound was evaluated for inhibition of [3H]prazosin binding to Alpha-1 adrenergic receptor in rat forebrain homogenate. The class given is tissue-based, Brain.
`C[C@H](N)[C@H](O)c1ccc(O)c(O)c1` (stereo in doubt; form 2) [LEVONORDEFRIN]: the inhibitory constant (Ki) was determined as 2315 µM.

Turning to `CN[C@H](C)[C@@H](O)c1ccc(O)c(O)c1`, the Ki came to 11 µM. This Ki lies about 210-fold lower than the previous one.

As for `CN[C@@H](C)[C@H](O)c1ccc(O)c(O)c1`, the inhibitory constant (Ki) was found to be 146 µM.

The compound `C[C@H](N)[C@H](O)c1ccc(O)c(O)c1` (stereo in doubt; form 1) [LEVONORDEFRIN] yielded an inhibition constant Ki of 3.6 µM.

Compound `CNC(C)C(O)c1ccc(O)c(O)c1` (stereo unspecified) [DIOXIFEDRINE] yielded a Ki of 28 µM.

`C[C@H](N)[C@H](O)c1ccc(O)c(O)c1` (stereo in doubt; 1) [LEVONORDEFRIN] yielded a Ki of 7.3 µM. This Ki lies about 3.8-fold lower than the previous one.

The term Ki denotes a measure of affinity in units of concentration, obtained from inhibition or displacement. Read a low Ki as a stronger hold on the target.
